According to US6706736B2, “Antidepressant azaheterocyclylmethyl derivatives of oxaheterocycle-fused-[1,4]-benzodioxans” (Wyeth, priority 2001, dated 2004):
pIC50, pKi: −log10 of the molar value. Structures can show the parent of a compound that is named as a salt. Where two headings read alike, the source gives them in different places.

Key:
human 5-HT1A receptors = target: T1, human 5-HT1A receptors (Homo sapiens, UniProt P08908); assay: [3H] 8-OHDPAT displacement from 5-HT1A receptor in transfected CHO cells; assay type: binding
T1 construct: expressed in transfected cells; host or cells: CHO cells (stably transfected)
T1 sequence (P08908 1-422): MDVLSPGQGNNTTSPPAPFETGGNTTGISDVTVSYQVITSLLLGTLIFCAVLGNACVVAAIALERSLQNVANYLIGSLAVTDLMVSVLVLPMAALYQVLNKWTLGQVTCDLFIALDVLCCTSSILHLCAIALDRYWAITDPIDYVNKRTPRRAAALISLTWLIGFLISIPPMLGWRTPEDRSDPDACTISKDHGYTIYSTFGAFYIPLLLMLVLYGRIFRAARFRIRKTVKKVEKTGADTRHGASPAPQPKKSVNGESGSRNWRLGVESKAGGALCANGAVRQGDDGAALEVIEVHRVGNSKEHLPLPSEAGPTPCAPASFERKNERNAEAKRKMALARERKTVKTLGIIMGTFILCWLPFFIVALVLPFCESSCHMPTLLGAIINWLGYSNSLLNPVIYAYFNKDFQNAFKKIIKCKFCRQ
Text: High affinity for the serotonin 5-HT1A receptor was established by testing the claimed compound's ability to displace [^3H] 8-OHDPAT (dipropylaminotetralin) from the 5-HT1A serotonin receptor following a modification of the procedure of Hall et al., J. Neurochem. 44, 1685 (1985) which utilizes CHO cells stably transfected with human 5-HT1A receptors.

[1] = target: T2, cloned human 5-HT1A receptors (Homo sapiens, UniProt P08908); assay: 35S-GTPγS binding assay, antagonist activity at 5-HT1A receptors; assay type: biochemical; conditions: reversal of standard agonist 8-OHDPAT; for pIC50: read-out: 5-HT1A Function IC50; for 5-HT1A Function Imax (maximum inhibitory effect): value in parentheses
T2 construct: expressed in transfected cells
T2 sequence (P08908 1-422): T1 sequence (P08908 1-422)
Procedure: Antagonist activity at 5-HT1A receptors was established by using a ^35S-GTPγS binding assay similar to that used by Lazareno and Birdsall (Br. J. Pharmacol. 109: 1120, 1993), in which the test compound's ability to affect the binding of ^35S-GTPγS to membranes containing cloned human 5-HT1A receptors was determined. Agonists produce an increase in binding whereas antagonists produce no increase but rather reverse the effects of the standard agonist 8-OHDPAT. The test compound's maximum inhibitory effect is represented as the Imax, while its potency is defined by the IC50.

serotonin transporter = target: T3, serotonin transporter (Rattus norvegicus, UniProt P31652); assay: 3H-paroxetine displacement from rat frontal cortical membranes (serotonin transporter affinity); assay type: binding
T3 construct: displace ^3H-paroxetine from male rat frontal cortical membranes; from tissue; host or cells: male rat frontal cortex membranes

[2] = 3H-paroxetine, male rat frontal cortical membranes, read-out: 5-HT Transporter Affinity KI

T3 sequence (P31652 whole entry): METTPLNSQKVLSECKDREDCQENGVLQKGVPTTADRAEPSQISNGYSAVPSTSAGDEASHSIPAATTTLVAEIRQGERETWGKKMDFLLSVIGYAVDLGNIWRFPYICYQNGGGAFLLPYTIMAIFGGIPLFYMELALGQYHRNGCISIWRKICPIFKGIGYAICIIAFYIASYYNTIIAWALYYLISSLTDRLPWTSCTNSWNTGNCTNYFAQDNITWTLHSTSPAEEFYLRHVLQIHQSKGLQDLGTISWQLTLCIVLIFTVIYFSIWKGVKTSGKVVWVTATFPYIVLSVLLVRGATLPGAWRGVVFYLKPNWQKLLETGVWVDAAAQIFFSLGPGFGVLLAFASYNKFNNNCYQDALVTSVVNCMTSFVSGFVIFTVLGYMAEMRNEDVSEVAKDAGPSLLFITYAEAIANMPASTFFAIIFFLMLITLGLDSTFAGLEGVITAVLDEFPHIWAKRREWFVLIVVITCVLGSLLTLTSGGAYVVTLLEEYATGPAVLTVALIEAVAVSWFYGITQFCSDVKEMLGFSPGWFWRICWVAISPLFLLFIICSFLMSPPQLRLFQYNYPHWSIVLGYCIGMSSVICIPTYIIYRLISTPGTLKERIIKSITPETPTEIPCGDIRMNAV

Structure (SMILES) | melting point | pKi (human 5-HT1A receptors) | pIC50 [1] | 5-HT1A Function Imax (maximum inhibitory effect) [1] | pKi (serotonin transporter; [2]) | pKi (serotonin transporter)
Fc1ccc2[nH]cc(C3=CCN(CC4COc5ccc6c(c5O4)CCCO6)CC3)c2c1 (stereo not shown) (as salt: salt) [Example 5, 5-Fluoro-3-{1-[2,3,9,10-tetrahydro-8H-[1,4]dioxino[2,3-f]chromen-2-ylmethyl]-1,2,3,6-tetrahydro-4-pyridinyl}-1H-indole] | 205 to 206 °C | – | – | – | – | –
Cc1cc2c3c(ccc2o1)OC[C@H](CN1CC=C(c2c[nH]c4ccccc24)CC1)O3 [Example 1] | – | 7.85 | 6.62 | 62.0 | 6.73 | –
Cc1cc2ccc3c(c2o1)OC(CN1CC=C(c2c[nH]c4ccccc24)CC1)CO3 (stereo not shown) [Example 1] | 198 to 200 °C | – | – | – | – | –
C1=C(c2c[nH]c3ccccc23)CCN(CC2COc3ccc4c(c3O2)CCO4)C1 (stereo not shown) [Example 2, 3-{1-[2,3,8,9-Tetrahydrofuro[3,2-f][1,4]benzodioxin-2-ylmethyl]-1,2,3,6-tetrahydro-4-pyridinyl}-1H-indole] | 207 to 209 °C | 7.34 | 6.58 | 66.0 | – | 7.47
C1=C(c2c[nH]c3ccccc23)CCN(CC2COc3ccc4occc4c3O2)C1 (stereo not shown) [Example 3, 3-{1-[2,3-Dihydrofuro[3,2-f][1,4]benzodioxin-2-ylmethyl]-1,2,3,6-tetrahydropyridin-4-yl}-1H-indole] | 208 to 209 °C | 7.71 | 7.72 | 61.0 | 6.94 | –
C1=C(c2c[nH]c3ccccc23)CCN(CC2COc3ccc4c(c3O2)CCCO4)C1 (stereo not shown) [Example 4, 3-{1-[2,3,9,10-Tetrahydro-8H-[1,4]dioxino[2,3-f]chromen-2-ylmethyl]-1,2,3,6-tetrahydro-4-pyridinyl}-1H-indole] | 186 to 187 °C | 7.52 | 6.06 | 100 | – | 8.07
Fc1ccc2[nH]cc(C3=CCN(CC4COc5ccc6c(c5O4)CCCO6)CC3)c2c1 (stereo not shown) [Example 5, 5-Fluoro-3-{1-[2,3,9,10-tetrahydro-8H-[1,4]dioxino[2,3-f]chromen-2-ylmethyl]-1,2,3,6-tetrahydro-4-pyridinyl}-1H-indole] | – | 7.53 | 6.46 | 100 | – | 8.00
